Assay type in all cases: functional, cell-based
Settings in all cases: Oocyte

Experiment [1] addresses Monocarboxylate transporter 8 (Rattus norvegicus) (UniProt Q8K1P8). Nature of the experiment: TP_TRANSPORTER: inhibition of thyroxine uptake (thyroxine:10nM, D-3,3',5-triiodothyronine: 10 uM) in Xenopus laevis oocytes. Set-up: scale not given: the % may be the effect or the level left.
For experiment [2] the target is unchanged. As to the kind of experiment: TP_TRANSPORTER: inhibition of 3,3',5-triiodothyronine uptake (3,3',5-triiodothyronine:10nM, D-3,3',5-triiodothyronine: 10 uM) in Xenopus laevis oocytes. Set-up: scale not given: the % may be the effect or the level left.
Experiment [3] has the same target. As to the kind of experiment: TP_TRANSPORTER: inhibition of thyroxine uptake (thyroxine:10nM, L-thyroxine: 10 uM) in Xenopus laevis oocytes. On the set-up: scale not given: the % may be the effect or the level left.
Experiment [4] has the same target. As to the kind of experiment: TP_TRANSPORTER: inhibition of 3,3',5-triiodothyronine uptake (3,3',5-triiodothyronine:10nM, L-thyroxine: 10 uM) in Xenopus laevis oocytes. Set-up: scale not given: the % may be the effect or the level left.
Experiment [5] shares this target. As to the kind of experiment: TP_TRANSPORTER: uptake in Xenopus laevis oocytes.
For experiment [6] the target is unchanged. Nature of the experiment: TP_TRANSPORTER: inhibition of 3,3',5-triiodothyronine uptake (3,3',5-triiodothyronine:10nM, N-bromoacetyl-3,3',5-triiodothyronine: 10 uM) in Xenopus laevis oocytes. Set-up: scale not given: the % may be the effect or the level left.
Experiment [7] shares this target. Nature of the experiment: TP_TRANSPORTER: inhibition of thyroxine uptake (thyroxine:10nM, N-bromoacetyl-3,3',5-triiodothyronine: 10 uM) in Xenopus laevis oocytes. On the set-up: scale not given: the % may be the effect or the level left.
Experiment [8] has the same target. As to the kind of experiment: TP_TRANSPORTER: inhibition of thyroxine uptake (thyroxine:10nM, Tryptophan: 100 uM) in Xenopus laevis oocytes. On the set-up: scale not given: the % may be the effect or the level left.
The target is the same in experiment [9]. As to the kind of experiment: TP_TRANSPORTER: inhibition of 3,3',5-triiodothyronine uptake (3,3',5-triiodothyronine:10nM, Tryptophan: 100 uM) in Xenopus laevis oocytes. Set-up: scale not given: the % may be the effect or the level left.
For experiment [10] the target is unchanged. As to the kind of experiment: TP_TRANSPORTER: inhibition of 3,3',5-triiodothyronine uptake (3,3',5-triiodothyronine:10nM, Tyrosine: 100 uM) in Xenopus laevis oocytes. Set-up: scale not given: the % may be the effect or the level left.
For experiment [11] the target is unchanged. Nature of the experiment: TP_TRANSPORTER: inhibition of thyroxine uptake (thyroxine:10nM, Tyrosine: 100 uM) in Xenopus laevis oocytes. Set-up: scale not given: the % may be the effect or the level left.
The target is the same in experiment [12]. As to the kind of experiment: TP_TRANSPORTER: inhibition of thyroxine uptake (thyroxine:10nM, bromosul-fophthalein: 100 uM) in Xenopus laevis oocytes. Set-up: scale not given: the % may be the effect or the level left.
Experiment [13] shares this target. Nature of the experiment: TP_TRANSPORTER: inhibition of 3,3',5-triiodothyronine uptake (3,3',5-triiodothyronine:10nM, bromosul-fophthalein: 100 uM) in Xenopus laevis oocytes. On the set-up: scale not given: the % may be the effect or the level left.
Experiment [14] has the same target. As to the kind of experiment: TP_TRANSPORTER: inhibition of thyroxine uptake (thyroxine:10nM, D-thyroxine: 10 uM) in Xenopus laevis oocytes. On the set-up: scale not given: the % may be the effect or the level left.
The target is the same in experiment [15]. As to the kind of experiment: TP_TRANSPORTER: inhibition of 3,3',5-triiodothyronine uptake (3,3',5-triiodothyronine:10nM, D-thyroxine: 10 uM) in Xenopus laevis oocytes. Set-up: scale not given: the % may be the effect or the level left.

Monocarboxylate transporter 8 (Rattus norvegicus), sequence (Q8K1P8 whole entry): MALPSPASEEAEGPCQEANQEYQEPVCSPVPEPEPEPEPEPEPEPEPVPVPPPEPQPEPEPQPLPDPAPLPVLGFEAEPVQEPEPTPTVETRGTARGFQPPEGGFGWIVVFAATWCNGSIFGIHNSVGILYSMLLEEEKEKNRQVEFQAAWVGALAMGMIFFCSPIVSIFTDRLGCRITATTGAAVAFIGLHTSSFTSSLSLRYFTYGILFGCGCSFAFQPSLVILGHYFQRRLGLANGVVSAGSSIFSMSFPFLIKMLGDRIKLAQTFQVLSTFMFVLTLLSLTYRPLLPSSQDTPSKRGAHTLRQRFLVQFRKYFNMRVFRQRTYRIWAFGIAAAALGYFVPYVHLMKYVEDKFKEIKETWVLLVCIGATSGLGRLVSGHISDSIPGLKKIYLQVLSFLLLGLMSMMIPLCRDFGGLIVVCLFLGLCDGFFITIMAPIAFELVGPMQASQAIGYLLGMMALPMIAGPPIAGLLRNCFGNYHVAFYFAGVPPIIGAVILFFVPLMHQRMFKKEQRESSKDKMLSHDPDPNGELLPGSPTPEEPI

As for `N[C@@H](Cc1ccc(Oc2cc(I)c(O)c(I)c2)c(I)c1)C(=O)O`, the Activity in experiment [1] is 72%; in experiment [2], 24%.

`N[C@@H](Cc1cc(I)c(Oc2cc(I)c(O)c(I)c2)c(I)c1)C(=O)O`: the Activity in experiment [3] is 69%; in [4], 26%. `NC(Cc1ccc(Oc2ccc(O)c(I)c2)c(I)c1)C(=O)O` (stereo unspecified): in experiment [5], the Activity result was “substrate [+]”.

Consider `CC(C)C[C@H](N)C(=O)O`, for which, in experiment [5], the Activity result is “is not a substrate [-]”.

As to `O=C(O)[C@@H](Cc1cc(I)c(Oc2cc(I)c(O)c(I)c2)c(I)c1)NS(=O)(=O)O`, the Activity entry in experiment [5] is “is not a substrate [-]”. `O=C(CBr)N[C@@H](Cc1cc(I)c(Oc2ccc(O)c(I)c2)c(I)c1)C(=O)O`: the Activity was 67% in experiment [6] and 90% in experiment [7]. Turning to `N[C@@H](Cc1c[nH]c2ccccc12)C(=O)O`, the Activity result in experiment [5] was “is not a substrate [-]”; in experiment [8], 22%; in [9], 0%. Regarding `N[C@@H](Cc1ccc(O)cc1)C(=O)O`, the Activity was 0% in [10], 37% in experiment [11] and “is not a substrate [-]” in experiment [5].

In the case of `O=C1OC(c2ccc(O)c(S(=O)(=O)O)c2)(c2ccc(O)c(S(=O)(=O)O)c2)c2c(Br)c(Br)c(Br)c(Br)c21`, the Activity is 94% in experiment [12] and 81% in [13].

In the case of `N[C@@H](Cc1cc(I)c(Oc2cc(I)c(OS(=O)(=O)O)c(I)c2)c(I)c1)C(=O)O`, in experiment [5], the Activity result was “is not a substrate [-]”.

Take `N[C@@H](Cc1ccccc1)C(=O)O`: the Activity result in experiment [5] is “is not a substrate [-]”.

`N[C@H](Cc1cc(I)c(Oc2cc(I)c(O)c(I)c2)c(I)c1)C(=O)O`: the Activity in experiment [14] was 76%; in [15], 21%.

The values above are taken from ChEMBL document CHEMBL2074163, “Identification of monocarboxylate transporter 8 as a specific thyroid hormone transporter” (J Biol Chem, 2003).
